From the METLIN SMRT retention time set (Domingo-Almenara et al. 2019)

Experiment: gradient 5% acetonitrile 3 min, to 50% in 2 min, to 85% in 15 min, held 3 min, 100 µL/min
Settings: column: Zorbax Extend-C18 2.1 x 50 mm; eluents: water / acetonitrile, 0.1% formic acid
Method in brief: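 A Zorbax Extend-C18 column (2.1 × 50 mm, 1.8 μm) run at 100 μL/min with water and acetonitrile, both containing 0.1% formic acid, separated mixtures of ~100 pure standards. The HPLC was coupled to a quadrupole time-of-flight mass spectrometer operated in positive and negative ionization mode, with dead and dwell volumes of 40 μL and 900 μL. Each retention time was taken from a computationally picked adduct peak that was then manually inspected.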

RP-LC retention time [s] | Compound
671 | CNC(=O)c1ccc(-c2nc3cc(NS(=O)(=O)c4cc(Cl)ccc4OC)ccc3n2C)cc1
1060 | CCCCOc1ccc(C(=O)N2CCOC(c3ccccc3)C2)cc1 (centres undefined)
621 | CNC(=O)[C@H]1O[C@@H](n2cnc3c(N)ncnc32)C(O)[C@H]1O (some centres undefined)
735 | Cc1ccc(CNC(=O)c2[nH]c3cc(C)sc3c2CN2CCOCC2)cc1
1240 | Cc1sc(NC(=O)c2ccc(F)cc2)nc1-c1ccc(Br)cc1
802 | CCN1C(=O)c2cccnc2Sc2cc(NC(=O)c3ccc4c(c3)OCO4)ccc21
710 | COC(=O)c1nc(NC(=O)Cn2nc3c(cc2=O)CCCC3)sc1C
1090 | Cc1ccc(-n2ccnc2SCc2nc(-c3ccc(Br)cc3)no2)cc1
832 | Cn1ncc(Br)c1C(=O)N1CCCC1c1ccc(F)cc1 (centres undefined)
779 | COc1cccc(Cn2cc(S(=O)(=O)N3CCCC3)ccc2=O)c1
926 | CSc1ccc(-c2nc3ccc(Cl)cn3c2NC2CCCCC2)cc1
1020 | Cc1ccc(S(=O)(=O)N2CCc3c(c(-c4nnc(-c5ccccc5)o4)nn3C)C2)c(C)c1
635 | CCc1cccc(C)c1N(C(=O)CSCc1nc2ccccc2[nH]1)C(C)COC (centres undefined)
814 | COc1ccc(NC(=O)C2c3ccccc3C(=O)N3CCc4cc(OC)c(OC)cc4C23)c(OC)c1 (centres undefined)
839 | CN1C(=O)c2cc(C(=O)NCc3ccccc3Cl)nn2CC1(C)C(=O)NC1CCCCC1 (centres undefined)
714 | O=C(O)c1ccc(Nc2c(-c3cccc(Cl)c3)nc3cnccn23)cc1
734 | Cn1nc(C(=O)N2CCCC2)c2c1CCN(C(=O)CCC(=O)NCCC1=CCCCC1)C2
818 | O=C(NCCCc1ccccc1)C1CCN(c2cnn(Cc3ccccc3)c(=O)c2)CC1
706 | COC(=O)c1ccc(NC(=O)NCCn2c(C(F)(F)F)nc3cccnc32)cc1
754 | CCOc1cc(=O)n2c(c1C(=O)Nc1ccc(SC)cc1)CCCC2
976 | COCCn1cc2c3c(cccc31)CN(C(=O)c1ccc(Br)o1)CC2
966 | COc1ccc(-c2nnc(-c3ccc(C)c(S(=O)(=O)N(C)C)c3)o2)cc1
966 | Cc1cc(-c2nnc(-c3ccccc3)o2)c(C)n1CC(=O)NCc1ccccc1Cl

RP-LC retention time [s] | Compound
1250 | COc1cccc(-c2noc(CN3C(=O)COc4ccc(C(C)(C)C)cc43)n2)c1
947 | Cc1csc(-c2cc(S(=O)(=O)Nc3ccc(Cl)cc3)cn2CC(=O)N2CCCC2)n1
701 | CCOC(=O)c1c(C)oc2nc(C)nc(NCCN(C)Cc3ccccc3)c12
675 | CNc1nc(Nc2cc(F)ccc2F)nc2ccccc12
578 | CC1CCCCN1CCCNC(=O)CCC(=O)N1CCc2c(c(C(=O)N3CCCCC3)nn2C)C1 (centres undefined)
756 | COc1cccc(CNC(=O)C2CCCN(c3nnc4ccc(Cl)cn34)C2)c1 (centres undefined)
875 | Cc1noc(C)c1C1CCCN1C(=O)c1cnn2c(C(F)(F)F)cc(-c3ccco3)nc12 (centres undefined)
804 | c1cc(-c2noc(C3CCC3)n2)cc(N2CCOCC2)n1
1040 | CC1CCN(C(=O)CC2CCN(S(=O)(=O)c3ccc(Cl)s3)CC2)CC1
796 | CCC(CC)NC(=O)C1CC(=O)N(CCc2c[nH]c3ccc(Cl)cc23)C1 (centres undefined)
812 | CN1C(=O)c2cccnc2Sc2cc(C(=O)NCc3ccc(Cl)cc3)ccc21
798 | CC(C)(C)n1nnnc1C1CC2(CCOCC2)C(=O)N1Cc1ccc(F)cc1 (centres undefined)
691 | O=C(NCCCNc1nc(Nc2cccc(NC(=O)N3CCCC3)c2)ncc1I)c1cccs1
851 | CC(C)n1c(=O)oc2cc(-c3noc(CNC(=O)c4ccccc4)n3)ccc21
1130 | CCOc1ccc(-c2cc3c(=O)n(Cc4nc(-c5ccccc5C)no4)ncn3n2)cc1
608 | CCCS(=O)(=O)Nc1cccc(-c2cn3ccccc3n2)c1
708 | CC(=O)N1CCc2cc(C)c(S(=O)(=O)N3CCOCC3)cc21
629 | Cc1ccc(C)c(NC(=O)N2CCN(c3cnn4c(C)nnc4c3)CC2)c1
900 | COc1ccc(Cn2nc3ccc(S(=O)(=O)N4CCCCC4)cn3c2=O)cc1
777 | CSc1ccc(-c2nc3ncccn3c2Nc2ccccc2)cc1
716 | Cc1cnc(C(=O)N2CCCCCCN(C)C(=O)[C@@H]3CCC[C@@H]32)cn1
775 | COc1cccc(NC(=O)Cn2ncc3c(c2=O)N(CC2CC2)C(=O)CS3)c1
983 | CC(C)c1ccc(NC(=O)C2CC(=O)N(CCc3c[nH]c4ccc(Cl)cc34)C2)cc1 (centres undefined)

RP-LC retention time [s] | Compound
878 | CCOC(=O)c1ccc(N2C(=O)c3n[nH]c(C)c3C2c2ccc(OC)cc2OC)cc1 (centres undefined)
924 | Cc1ccc(-c2c(C)noc2C)cc1S(=O)(=O)NCc1ccccc1
772 | Cc1cccc(CNC(=O)C2(C)Cn3cnc(C(=O)NCc4ccccc4F)c3C(=O)N2C2CC2)c1 (centres undefined)
765 | COc1ccc(Cl)cc1NS(=O)(=O)c1cn(CC(C)C)c2ncccc12
819 | CCn1nnc2ccc(-c3noc(-c4cccc(NC(C)=O)c4)n3)cc21
847 | CCc1cccc(N2C(=O)CN(S(C)(=O)=O)CC2(C)C(=O)NCc2ccc(F)cc2)c1 (centres undefined)
548 | O=C1CCC(C(=O)N2CCN(c3ccc(-n4cccn4)nn3)CC2)N1 (centres undefined)
717 | Cc1cccc(N2CCN(C(=O)CCC3CCN(c4cc(NC5CC5)ncn4)CC3)CC2)c1
917 | CCC1Oc2ccc(S(=O)(=O)N3CCC(C(=O)N(C)C4CCCCC4)CC3)cc2NC1=O (centres undefined)
724 | CCS(=O)(=O)N1N=C(c2cccs2)CC1c1ccc2nccnc2c1 (centres undefined)
641 | O=C1NCCCn2cc(S(=O)(=O)Nc3ccc(F)cc3F)cc21
578 | O=C(Cc1cccnc1)N1CCC[C@H]1c1nc(-c2ccccc2)n[nH]1
1070 | CSc1cccc(N2C(=O)C3N=NN(Cc4nc(-c5ccc(Cl)cc5)no4)C3C2=O)c1 (centres undefined)
835 | O=C(Nc1cc(Cl)ccc1F)C1CC(=O)N(c2ccc3c(c2)CCN3C(=O)C2CC2)C1 (centres undefined)
990 | COc1cc(-c2noc(C3CC(=O)N(c4ccc(C)c(C)c4)C3)n2)cc(OC)c1OC (centres undefined)
788 | COc1cccc(NC(=O)Cn2ccc3ccc(-c4nnc(C)o4)cc32)c1
740 | Cc1ccc(C(=O)N2CCCCCNC(=O)[C@@H]3CCC[C@@H]32)s1
1010 | CCOC(=O)c1noc2nc(C)nc(Nc3ccccc3)c12
758 | O=C(NCc1ccccc1F)c1cn(-c2cc(N3CCOCC3)ncn2)cn1
1130 | CCN1C(=O)COc2ccc(-c3noc(-c4cccc(OC)c4)n3)cc21
1060 | Cc1c(-c2noc(-c3ccc(F)cc3)n2)nnn1Cc1ccccc1
826 | CCOC(=O)c1c(NCCc2cccs2)c2cc(Cl)ccc2[nH]c1=O
1090 | Cc1ccc(C(C)NC(=O)C2CCN(c3nccnc3Oc3ccccc3)CC2)c(C)c1 (centres undefined)

RP-LC retention time [s] | Compound
886 | CC1=C(c2ccc(F)cc2)S(=O)(=O)N=C1N1CCCN(C(=O)C2CCOC2)CC1 (centres undefined)
988 | CC(=O)c1cccc(NC(=O)Cn2cccc2-c2nc(-c3ccccc3)no2)c1
1050 | CCc1ccc(S(=O)(=O)N2CCc3c(c(-c4nnc(-c5ccc(F)cc5)o4)nn3C)C2)cc1
1200 | COc1cccc(-c2noc(CN3C(=O)COc4cc(C(C)(C)C)ccc43)n2)c1
775 | CCCCOc1ccc(-c2cc3c(N4CCN(CC)CC4)nccn3n2)cc1
701 | CC(C)NCC(O)COc1ccccc1-n1cccc1 (centres undefined)
1030 | CCC(C)c1ccc(-c2csc(NC(C)=O)n2)cc1 (centres undefined)
611 | CC(C)n1cnc2cc(CNC(=O)C3CCCCC3)ccc21
894 | Cn1cc(-c2noc(-c3cc(F)ccc3Cl)n2)ccc1=O
688 | Cc1cc(C)cc(C(=O)NC(C)C(=O)Nc2nc3ccccc3[nH]2)c1 (centres undefined)
841 | O=C(Cc1csc2nc(-c3ccccc3)cn12)NCCCc1ccccc1
1020 | Cc1ccc(-c2nnc(SCC(=O)Nc3cccc(Cl)c3C)o2)cc1
603 | CS(=O)(=O)N1CCCC(C(=O)NC2CCCC2)CCNC(=O)CC1 (centres undefined)
732 | CC(=O)c1ccc(NC(=O)c2cc(-c3cccnc3)nc3ccccc23)cc1
660 | NS(=O)(=O)c1ccc(CCNC(=O)c2cn3cc(Cl)ccc3n2)cc1
1160 | Cc1cccc(-c2noc(CN3C(=O)COc4cc(Cl)ccc43)n2)c1
661 | COc1ccc(NC(=O)Cn2c(N3CCCCC3)nc(C)cc2=O)cc1
694 | COc1ccc(N2CCN(C(=O)CN3C(=O)NC4(CCCCC4)C3=O)CC2)cc1
1320 | Cc1ccc(S(=O)(=O)c2cnc(N3CCN(c4cc(Cl)ccc4C)CC3)nc2N)cc1
739 | Cc1cc(C)c2c(N)c(C(=O)c3ccccn3)sc2n1
